Data: patent US9474790B2, “Stable, protracted GLP-1/glucagon receptor co-agonists for medical use” (Novo Nordisk A/S, priority 2013, dated 2016)
Numbered stars: 1 amine (or outer) side, 2 acyl side, 3 side chain; on linkers, the order of the positions; unused ones are H or OH. Square brackets hold non-standard residues; d marks the D form. Side chains are listed from the residue outwards. Peptide text beside a SMILES is read from it. * marks the point of attachment. C18 diacid = O=C(O)CCCCCCCCCCCCCCCCC(=O)*; γGlu = O=C(O)[C@H](CCC(=O)[*:2])N[*:1]; Ac4c = NC1(C(=O)O)CCC1; AEEA = NCCOCCOCC(=O)O; Aib = CC(C)(N)C(=O)O

Each compound was assayed against T1, human GLP-1 receptor (Homo sapiens, UniProt P43220) (assay: GLP-1 receptor binding, 125I-GLP-1 displacement SPA on isolated membranes). Settings: displacement of 125I-GLP-1 from membranes; read-out: IC50 GLP-1R.
T1 construct: expressed in transfected cells; host or cells: BHK cells (parent BHKTS13), clone FCW467-12A/KZ10-1, with CRE luciferase
T1 sequence (P43220 24-463): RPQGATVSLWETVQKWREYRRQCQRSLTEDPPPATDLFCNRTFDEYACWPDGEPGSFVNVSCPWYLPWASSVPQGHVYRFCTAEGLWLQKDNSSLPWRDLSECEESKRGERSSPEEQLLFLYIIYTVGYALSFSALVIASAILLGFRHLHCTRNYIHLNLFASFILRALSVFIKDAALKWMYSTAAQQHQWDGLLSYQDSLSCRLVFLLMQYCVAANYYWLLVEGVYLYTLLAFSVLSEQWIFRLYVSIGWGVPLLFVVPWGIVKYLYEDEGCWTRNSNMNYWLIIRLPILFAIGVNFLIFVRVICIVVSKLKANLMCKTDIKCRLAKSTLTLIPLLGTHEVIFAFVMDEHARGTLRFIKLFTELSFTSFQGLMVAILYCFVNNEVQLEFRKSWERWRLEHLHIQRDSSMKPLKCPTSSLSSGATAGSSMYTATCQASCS
Procedure, shortened: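 SPA displacement of 125I-GLP-1(7-36)NH2 from membranes of BHK cells expressing human GLP-1 receptor, with WGA beads, in 50 mM HEPES, 5 mM EGTA, 5 mM MgCl2, 0.005% Tween 20, pH 7.4. Incubated 2 h at 30°C; IC50 by non-linear regression, run at ≤0.001% or 2.0% final serum albumin.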

In order of rising IC50:
1. CC(C)C[C@H](NC(=O)[C@H](Cc1ccc(O)cc1)NC(=O)[C@H](CCCNC(=N)N)NC(=O)[C@H](CO)NC(=O)[C@H](CC(C)C)NC(=O)[C@H](CC(=O)O)NC(=O)[C@H](CO)NC(=O)[C@@H](NC(=O)[C@H](Cc1ccccc1)NC(=O)[C@@H](NC(=O)CNC(=O)[C@H](CCC(N)=O)NC(=O)C1(NC(=O)[C@@H](N)Cc2c[nH]cn2)CCC1)[C@@H](C)O)[C@@H](C)O)C(=O)N[C@@H](CCC(=O)O)C(=O)N[C@@H](CO)C(=O)N[C@@H](CCCNC(=N)N)C(=O)N[C@@H](CCCNC(=N)N)C(=O)N[C@@H](C)C(=O)N[C@@H](CCCNC(=N)N)C(=O)N[C@@H](CCC(=O)O)C(=O)N[C@@H](Cc1ccccc1)C(=O)N[C@H](C(=O)N[C@@H](CCC(N)=O)C(=O)N[C@@H](Cc1c[nH]c2ccccc12)C(=O)N[C@@H](CC(C)C)C(=O)N[C@@H](CC(C)C)C(=O)N[C@@H](CCCCNC(=O)CC[C@H](NC(=O)CC[C@H](NC(=O)COCCOCCNC(=O)COCCOCCNC(=O)CC[C@H](NC(=O)CC[C@H](NC(=O)CCCCCCCCCCCCCCCCC(=O)O)C(=O)O)C(=O)O)C(=O)O)C(=O)O)C(=O)N[C@H](C(N)=O)[C@@H](C)O)C(C)C [Example 59, N^ε28-[(4S)-4-carboxy-4-[[(4S)-4-carboxy-4-[[2-[2-[2-[[2-[2-[2-[[(4S)-4-carboxy-4-[[(4S)-4-carboxy-4-(17-carboxyheptadecanoylamino)butanoyl]amino]butanoyl]amino]ethoxy]ethoxy]acetyl]amino]ethoxy]ethoxy]acetyl]amino]butanoyl]amino]butanoyl]-[Acb2,Leu10,Arg12,Glu15,Arg20,Glu21,Leu27,Lys28]-Glucagon amide] (H-H[Ac4c]QGTFTSDLSRYLESRRAREFVQWLLK([γGlu-γGlu-AEEA-AEEA-γGlu-γGlu-C18 diacid])T-NH2; N-terminus assumed)  0.2 nM
2. CC(C)C[C@H](NC(=O)[C@H](Cc1ccc(O)cc1)NC(=O)[C@H](CCCCN)NC(=O)[C@H](CO)NC(=O)[C@H](CC(C)C)NC(=O)[C@H](CC(=O)O)NC(=O)[C@H](CO)NC(=O)[C@@H](NC(=O)[C@H](Cc1ccccc1)NC(=O)[C@@H](NC(=O)CNC(=O)[C@H](CCC(N)=O)NC(=O)C(C)(C)NC(=O)[C@@H](N)Cc1c[nH]cn1)[C@@H](C)O)[C@@H](C)O)C(=O)N[C@@H](CCC(=O)O)C(=O)N[C@@H](CO)C(=O)N[C@@H](CCCNC(=N)N)C(=O)N[C@@H](CCCNC(=N)N)C(=O)N[C@@H](C)C(=O)N[C@@H](CCCNC(=N)N)C(=O)N[C@@H](CCC(=O)O)C(=O)N[C@@H](Cc1ccccc1)C(=O)N[C@H](C(=O)N[C@@H](CCC(N)=O)C(=O)N[C@@H](Cc1c[nH]c2ccccc12)C(=O)N[C@@H](CC(C)C)C(=O)N[C@@H](CC(C)C)C(=O)N[C@@H](CCCCNC(=O)CC[C@H](NC(=O)CC[C@H](NC(=O)COCCOCCNC(=O)COCCOCCNC(=O)CC[C@H](NC(=O)CC[C@H](NC(=O)CCCCCCCCCCCCCCCCC(=O)O)C(=O)O)C(=O)O)C(=O)O)C(=O)O)C(=O)N[C@H](C(N)=O)[C@@H](C)O)C(C)C [Example 60, N^ε28-[(4S)-4-carboxy-4-[[(4S)-4-carboxy-4-[[2-[2-[2-[[2-[2-[2-[[(4S)-4-carboxy-4-[[(4S)-4-carboxy-4-(17-carboxyheptadecanoylamino)butanoyl]amino]butanoyl]amino]ethoxy]ethoxy]acetyl]amino]ethoxy]ethoxy]acetyl]amino]butanoyl]amino]butanoyl]-[Aib2,Leu10,Glu15,Arg20,Glu21,Leu27,Lys28]-Glucagon amide] (H-H[Aib]QGTFTSDLSKYLESRRAREFVQWLLK([γGlu-γGlu-AEEA-AEEA-γGlu-γGlu-C18 diacid])T-NH2; N-terminus assumed)  0.2 nM
3. CC(C)C[C@H](NC(=O)[C@H](Cc1ccc(O)cc1)NC(=O)[C@H](CCCNC(=N)N)NC(=O)[C@H](CO)NC(=O)[C@H](CC(C)C)NC(=O)[C@H](CC(=O)O)NC(=O)[C@H](CO)NC(=O)[C@@H](NC(=O)[C@H](Cc1ccccc1)NC(=O)[C@@H](NC(=O)CNC(=O)[C@H](CCC(N)=O)NC(=O)C(C)(C)NC(=O)[C@@H](N)Cc1c[nH]cn1)[C@@H](C)O)[C@@H](C)O)C(=O)N[C@@H](CC(=O)O)C(=O)N[C@@H](C)C(=O)N[C@@H](CCCNC(=N)N)C(=O)N[C@@H](CCCNC(=N)N)C(=O)N[C@@H](C)C(=O)N[C@@H](CCCNC(=N)N)C(=O)N[C@@H](CC(=O)O)C(=O)N[C@@H](Cc1ccccc1)C(=O)N[C@H](C(=O)N[C@@H](CCC(N)=O)C(=O)N[C@@H](Cc1c[nH]c2ccccc12)C(=O)N[C@@H](CC(C)C)C(=O)N[C@@H](CC(C)C)C(=O)N[C@@H](CCCCNC(=O)CC[C@H](NC(=O)CC[C@H](NC(=O)CC[C@H](NC(=O)CCCCCCCCCCCCCCCCC(=O)O)C(=O)O)C(=O)O)C(=O)O)C(=O)N[C@H](C(N)=O)[C@@H](C)O)C(C)C [Example 62, N^ε28-[(4S)-4-carboxy-4-[[(4S)-4-carboxy-4-[[(4S)-4-carboxy-4-(17-carboxyheptadecanoylamino)butanoyl]amino]butanoyl]amino]butanoyl]-[Aib2,Leu10,Arg12,Ala16,Arg20,Leu27,Lys28]-Glucagon amide] (H-H[Aib]QGTFTSDLSRYLDARRARDFVQWLLK([γGlu-γGlu-γGlu-C18 diacid])T-NH2; N-terminus assumed)  0.2 nM
4. CC(C)C[C@H](NC(=O)[C@H](Cc1ccc(O)cc1)NC(=O)[C@H](CCCCN)NC(=O)[C@H](CO)NC(=O)[C@H](CC(C)C)NC(=O)[C@H](CC(=O)O)NC(=O)[C@H](CO)NC(=O)[C@@H](NC(=O)[C@H](Cc1ccccc1)NC(=O)[C@@H](NC(=O)CNC(=O)[C@H](CCC(N)=O)NC(=O)C(C)(C)NC(=O)[C@@H](N)Cc1c[nH]cn1)[C@@H](C)O)[C@@H](C)O)C(=O)N[C@@H](CC(=O)O)C(=O)N[C@@H](CO)C(=O)N[C@@H](CCCNC(=N)N)C(=O)N[C@@H](CCCNC(=N)N)C(=O)N[C@@H](C)C(=O)N[C@@H](CCCNC(=N)N)C(=O)N[C@@H](CCC(=O)O)C(=O)N[C@@H](Cc1ccccc1)C(=O)N[C@H](C(=O)N[C@@H](CCC(N)=O)C(=O)N[C@@H](Cc1c[nH]c2ccccc12)C(=O)N[C@@H](CC(C)C)C(=O)N[C@@H](CC(C)C)C(=O)N[C@@H](CCCCNC(=O)CC[C@H](NC(=O)CC[C@H](NC(=O)COCCOCCNC(=O)COCCOCCNC(=O)CC[C@H](NC(=O)CCCCCCCCCCCCCCCCC(=O)O)C(=O)O)C(=O)O)C(=O)O)C(=O)N[C@H](C(N)=O)[C@@H](C)O)C(C)C [Example 56, N^ε28-[(4S)-4-carboxy-4-[[(4S)-4-carboxy-4-[[2-[2-[2-[[2-[2-[2-[[(4S)-4-carboxy-4-(17-carboxyheptadecanoylamino)butanoyl]amino]ethoxy]ethoxy]acetyl]amino]ethoxy]ethoxy]acetyl]amino]butanoyl]amino]butanoyl]-[Aib2,Leu10,Arg20,Glu21,Leu27,Lys28]-Glucagon amide] (H-H[Aib]QGTFTSDLSKYLDSRRAREFVQWLLK([γGlu-γGlu-AEEA-AEEA-γGlu-C18 diacid])T-NH2)  0.3 nM
5. CC(C)C[C@H](NC(=O)[C@H](Cc1ccc(O)cc1)NC(=O)[C@H](CCCCN)NC(=O)[C@H](CO)NC(=O)[C@H](CC(C)C)NC(=O)[C@H](CC(=O)O)NC(=O)[C@H](CO)NC(=O)[C@@H](NC(=O)[C@H](Cc1ccccc1)NC(=O)[C@@H](NC(=O)CNC(=O)[C@H](CCC(N)=O)NC(=O)C1(NC(=O)[C@@H](N)Cc2c[nH]cn2)CCC1)[C@@H](C)O)[C@@H](C)O)C(=O)N[C@@H](CCC(=O)O)C(=O)N[C@@H](CO)C(=O)N[C@@H](CCCNC(=N)N)C(=O)N[C@@H](CCCNC(=N)N)C(=O)N[C@@H](C)C(=O)N[C@@H](CCCNC(=N)N)C(=O)N[C@@H](CCC(=O)O)C(=O)N[C@@H](Cc1ccccc1)C(=O)N[C@H](C(=O)N[C@@H](CCC(N)=O)C(=O)N[C@@H](Cc1c[nH]c2ccccc12)C(=O)N[C@@H](CC(C)C)C(=O)N[C@@H](CC(C)C)C(=O)N[C@@H](CCCCNC(=O)CC[C@H](NC(=O)CC[C@H](NC(=O)COCCOCCNC(=O)COCCOCCNC(=O)CC[C@H](NC(=O)CC[C@H](NC(=O)CCCCCCCCCCCCCCCCC(=O)O)C(=O)O)C(=O)O)C(=O)O)C(=O)O)C(=O)N[C@H](C(N)=O)[C@@H](C)O)C(C)C [Example 61, N^ε28-[(4S)-4-carboxy-4-[[(4S)-4-carboxy-4-[[2-[2-[2-[[2-[2-[2-[[(4S)-4-carboxy-4-[[(4S)-4-carboxy-4-(17-carboxyheptadecanoylamino)butanoyl]amino]butanoyl]amino]ethoxy]ethoxy]acetyl]amino]ethoxy]ethoxy]acetyl]amino]butanoyl]amino]butanoyl]-[Acb2,Leu10,Glu15,Arg20,Glu21,Leu27,Lys28]-Glucagon amide] (H-H[Ac4c]QGTFTSDLSKYLESRRAREFVQWLLK([γGlu-γGlu-AEEA-AEEA-γGlu-γGlu-C18 diacid])T-NH2; N-terminus assumed)  0.3 nM
6. CC(C)C[C@H](NC(=O)[C@H](Cc1ccc(O)cc1)NC(=O)[C@H](CCCCN)NC(=O)[C@H](CO)NC(=O)[C@H](CC(C)C)NC(=O)[C@H](CC(=O)O)NC(=O)[C@H](CO)NC(=O)[C@@H](NC(=O)[C@H](Cc1ccccc1)NC(=O)[C@@H](NC(=O)CNC(=O)[C@H](CCC(N)=O)NC(=O)C(C)(C)NC(=O)[C@@H](N)Cc1c[nH]cn1)[C@@H](C)O)[C@@H](C)O)C(=O)N[C@@H](CC(=O)O)C(=O)N[C@@H](C)C(=O)N[C@@H](CCCNC(=N)N)C(=O)N[C@@H](CCCNC(=N)N)C(=O)N[C@@H](C)C(=O)N[C@@H](CCCNC(=N)N)C(=O)N[C@@H](CC(=O)O)C(=O)N[C@@H](Cc1ccccc1)C(=O)N[C@H](C(=O)N[C@@H](CCC(N)=O)C(=O)N[C@@H](Cc1c[nH]c2ccccc12)C(=O)N[C@@H](CC(C)C)C(=O)N[C@@H](CC(C)C)C(=O)N[C@@H](CC(N)=O)C(=O)N[C@@H](CCCCNC(=O)CC[C@H](NC(=O)CC[C@H](NC(=O)COCCOCCNC(=O)COCCOCCNC(=O)CC[C@H](NC(=O)CCCCCCCCCCCCCCCCC(=O)O)C(=O)O)C(=O)O)C(=O)O)C(N)=O)C(C)C [Example 65] (H-H[Aib]QGTFTSDLSKYLDARRARDFVQWLLNK([γGlu-γGlu-AEEA-AEEA-γGlu-C18 diacid])-NH2; N-terminus assumed)  0.5 nM
